Data from patent publication EP2265599B1, “CRYSTAL FORM OF PHENYLAMINOPYRIMIDINE DERIVATIVE” (Natco Pharma Limited, priority 2008, dated 2009).
Entries after “also recorded” stand apart in the source; their conditions may differ.

Key:
Baf3T315I = assay: In vivo anti-leukemic activity, blast cell count in blood smears, Baf3T315I implanted nude mice; settings: Imatinib 10mg/kg, AN019 20mg/kg, AN024 20mg/kg, oral gavage or ip from day 15; up to day 42
From the text: (§1) Blood smears were obtained via the tail vein or via the femoral vein every 6th day and blast cells counted and graphically represented.
(§2) Abdominal swelling and decrease in activity was monitored daily, blood smear taken via the tail vein or the femoral vein every 6th day and H&E stained as per standard protocols. 42 days after implantation, mice were sacrificed and spleens harvested.
(§3) Nude mice were intraperitoneally implanted with Baf3 mutant cells (wt, T315I, M351T or E255K). […] Blood was drawn from the femoral vein or tail vein every 6th day and blast cell count determined and graphically represented.

ZR-71 = assay: Matrigel invasion assay (modified Boyden chamber), ZR-71; assay type: cell-based; settings: cells treated 48 h
Description: (§4) The in vitro invasiveness of 4910, 5310 and U87 glioma cells and MDAMB231 and ZR71 breast cancer cells in the presence of specified concentrations of compounds were assessed using a modified Boyden chamber assay. Cells were treated with these compounds for 48 h. 1x10^6 cells were suspended in 600µl of serum-free medium supplemented with 0.2% BSA and placed in the upper compartment of the transwell chambers (Coming Costar Fischer Scientific Cat #07-200-158, Pittsburgh PA) coated with Matrigel (0.7 mg/ml). The lower compartment of the chamber was filled with 200 µl of serum medium and the cells were allowed to migrate for 24 h. After incubation, the cells were fixed and stained with Hema-3 and quantified as previously described (Mohanam et al. 1993). The migrated cells were imaged microscopically to determine the reduction in invasiveness induced by the compounds of this invention.
(§5) The in vitro invasiveness of 4910, 5310 and U87 glioma cells and MDAMB231 and ZR71 breast cancer cells in the presence of specified concentrations of compounds were assessed using a modified Boyden chamber assay. Cells were treated with these compounds for 48 h.

5310 = assay: Matrigel invasion assay (modified Boyden chamber), 5310; assay type: cell-based; settings: cells treated 48 h
Description: as §4, §5

[1] = system: K562 luc human leukemia cells; assay: Drug effectiveness (De) from in vivo luciferase studies; parameters: species or system nude mice
From the text: [formula] Where: • Σalive = total number of mice alive per concentration at the end of experiment times photon count, Eluc = total number of mice alive showing luciferase expression per concentration at end of experiment and c represents control untreated animals times photon count and ∑c-initial represents the initial number of animals in control at start of experiment times photon count.

ZR-71 cells = assay: In vitro angiogenic assay (conditioned media on human dermal endothelial cells), ZR-71; assay type: cell-based
Description: (§6) The in vitro angiogenesis of 4910, 5310 and U87 glioma cells and MDAMB231 and ZR71 breast cancer cells in the presence of specified concentrations of compounds were determined as follows, cells (2x10^4/well) were seeded in 8-well chamber slides and were treated with various concentrations of test compounds. After a 24 h incubation period, the conditioned media was removed and added to a 4x 10^4 human dermal endothelial cell (monolayer in 8-well chamber slides) and the human dermal endothelial cells were allowed to grow for 72 h. Cells were then fixed in 3.7% formaldehyde and stained with H&E and photographed.

K562 cells [2] = assay: Spleenic enlargement and Crk immunocytochemistry of spleen in nude mice implanted with K562 cells; assay type: in vivo; settings: ip injections
Description: Spleen and any secondary tumors were harvested, fixed in formaldehyde and paraffin embedded as per standard protocols. Paraffin section were obtained and processed for immunocytochemistry. The rehydrated sections were treated with 0.3% H2O2 to inactivate any native peroxidases prior to immuno-probing. The sections were blocked with filter sterilized (0.22µm) 1% BSA-PBS at room temperature for 1h. Following blocking, the sections were immuno-probed with a human specific anti-Crk monoclonal primary antibody raised in rabbit against a synthetic peptide corresponding to residues in the SH2 domain, near the N-term of human CrkL protein (Abcam, Cambridge, MA, USA) in 1%BSA-PBS overnight. Secondary antibody (anti-rabbit) conjugated to HRP was used to detect the presence of primary antibody. The sections were briefly rinsed three times in PBS solution after immuno-probing with secondary antibody, and DAB HRP substrate was added per manufacture's instructions (Sigma St Louis MO USA). […] For negative controls primary antibody were eliminated. Leukemic mice spleen served as positive controls.
Mice were sacrificed after a decrease in LGI was observed and spleen harvested. […] Control mice also developed random subcutaneous tumors showing Crk expression, indicative of the presence of K562 cells.

[3] = system: Glioma xenograft cells 4910; assay: In vitro angiogenic assay (conditioned media on human dermal endothelial cells), 4910; assay type: cell-based; settings: 4910 cells, with and without radiation
Description: as §6

MDA-MB-231 cells = assay: In vitro angiogenic assay (conditioned media on human dermal endothelial cells), MDA-MB-231; assay type: cell-based; settings: control condition and after radiation
Description: as §6

K562 cells [4] = assay: Anti-CML activity in nude mice implanted with K562 cells (leukemia growth index, LGI)
ZR71 = assay: Western blot analysis for AKT, ERK and Pi3k, ZR71; assay type: cell-based
Description: Western blot analysis of 4910, 5310 and U87 glioma cells and MDAMB231 and ZR71 breast cancer cells in the presence of specified concentrations of compounds were assessed as per standard protocols. Cells were treated with AN019, AN024 or Temozolomide at the specified concentrations. 24h after treatment, cells were collected and cell lysates extracted. Equal quantities of proteins were fractionated by SDS-PAGE. The fractionated proteins were blotted on to nylon membranes and immunoprobed for AKT, ERK and Pi3k. Breast cancer cell protein isolates were additionally immunoprobed for EGFR, ErbB1, ErbB2 and ErbB3.

Baf3E255K = assay: In vivo anti-leukemic activity, blast cell count in blood smears, Baf3E255K implanted nude mice; settings: Imatinib 10mg/kg, AN019 20mg/kg, AN024 20mg/kg, oral gavage or ip from day 15; up to day 42
From the text: as §1, §2, §3

4910 = assay: Matrigel invasion assay (modified Boyden chamber), 4910; assay type: cell-based, human; settings: cells treated 48 h
Description: as §4, §5

U87 = assay: Matrigel invasion assay (modified Boyden chamber), U87; assay type: cell-based; settings: cells treated 48 h
Description: as §4, §5

[5] = system: K562 luciferase expressing cells; assay: Leukemic survival study, K562 luciferase expressing cells implanted intraperitoneally; assay type: in vivo, nude mice
5310 cells = assay: In vitro angiogenic assay (conditioned media on human dermal endothelial cells), 5310; assay type: cell-based; settings: control conditions and after radiation
Description: as §6

MDA-MB-231 = assay: Matrigel invasion assay (modified Boyden chamber), MDA-MB-231; assay type: cell-based; settings: cells treated 48 h
Description: as §4, §5

Cc1ccc(NC(=O)c2cc(C(F)(F)F)cc(C(F)(F)F)c2)cc1Nc1nccc(-c2cccnc2)n1 [AN019, (3,5-bis trifluoromethyl)-N-[4-methyl-3-(4-pyridin-3yl-pyrimidin-2ylamino)-phenyl]-benzamide]
blast cell count in blood smears (Baf3T315I): significant decrease in blast cell count | +Radiation % Invasion (ZR-71; ZR-71, with radiation): 19% | -Radiation % Invasion (ZR-71; ZR-71, without radiation): 33% | +Radiation % Invasion (5310; 5310, with radiation): 6% | -Radiation % Invasion (5310; 5310, without radiation): 5% | De (drug effectiveness) ([1]; 5mg/kg): 25.82% | De (drug effectiveness) ([1]; 10mg/kg): 78.20% | De (drug effectiveness) ([1]; 20mg/kg): 83.40% | De (drug effectiveness) ([1]; 40mg/kg): 85.20% | inhibition of angiogenesis (ZR-71 cells): complete inhibition of angiogenesis | Crk expression in spleen (immunohistochemistry) (K562 cells [2]; paraffin sections of spleen): basal levels of Crk expression; also recorded: only basal level expression of Crk expression comparable to negative control | Spleenic enlargement (gross observation) (K562 cells [2]; spleen harvested after decrease in LGI): did not show any spleenic enlargement | inhibition of angiogenesis [3]: inhibition of angiogenesis similar to MDA-MB-231 cells with an increase in angiogenic inhibition after radiation | inhibition of angiogenesis (MDA-MB-231 cells): a slight inhibition was observed in both control and radiation treatments | physiological, phenotypic or behavioral abnormality (K562 cells [4]; K562 implanted nude mice, ip 10mg/kg): no abnormal physiological, phenotypic or behavioral abnormality | LGI after initiation of drug treatment (time course) (K562 cells [4]; daily ip injections of 10mg/kg from day 15, blood drawn every 6th day): steady decline in LGI | PI3k levels (ZR71; ZR71 (cell line by context), with and without radiation): absent in AN019 treatments both with and without radiation | AKT levels (ZR71; ZR71, unirradiated and after radiation): decrease in AKT levels, which was enhanced after radiation | blast cell count in blood smears (Baf3E255K): significant decrease in blast cell count | +Radiation % Invasion (4910; 4910, with radiation): 15% | -Radiation % Invasion (4910; 4910, without radiation): 42% | +Radiation % Invasion (U87; U87, with radiation): 18% | -Radiation % Invasion (U87; U87, without radiation): 18% | curative effect after withdrawal of drug treatment (animals cured at day 58) ([5]; drug treatment stopped at day 42, based on luminescence (Fig. 20)): continued to show curative effect | Blast cell count from blood smears after withdrawal of drug treatment ([5]; drug treatment withdrawn on day 42 (Fig. 21)): showed effectiveness after withdrawal of drug treatment | mortality ([5]; treatment from day 15 till day 42, then withdrawn, AN024 death determined to be other than leukemia): did not show any mortality | animals showing no signs of leukemia / complete absence of leukemic symptoms ([5]; treatment from day 15 till day 42, then withdrawn, AN024 on day 55): 7 of the 10 animals | inhibition of angiogenesis (5310 cells): inhibition of angiogenesis was greater in control conditions than after radiation treatment | +Radiation % Invasion (MDA-MB-231; MDA-MB-231, with radiation): 15% | -Radiation % Invasion (MDA-MB-231; MDA-MB-231, without radiation): 45%
